From publication PMC11249239 (PLOS ONE, 2024)

System: MCF10A normal breast epithelial cells
Experiment: Cell growth inhibition (CCK8 cytotoxicity assay), MCF10A
Type: cell-based
Conditions: Homo sapiens, MCF-10A, 48 h treatment, read-out: Average EC50 ± SD, cell growth inhibition

Structure (SMILES): O=C(CCCCCCC(=O)Nc1ccccc1)NO [SAHA, reference compound]
- EC50: 10.1 ± 0.982 µM
